In US20190375708A1 (VenatoRx Pharmaceuticals, Inc., priority 2018, published 2019):

Assays:
[1] = system: HBV replication in HepAD38 cells; assay: Anti-HBV replication assay in HepAD38 cells (QPCR of extracellular HBV DNA); format: cell-based, HBV (genotype D, serotype ayw); details: Hepatitis B virus, 168 h, 7 days incubation, extracellular HBV DNA by QPCR, read-out: Anti-HBV EC50
Outline: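 Compounds (1 log10 serial dilutions, […]) were left 7 days on tetracycline-free HepAD38 cultures, a HepG2 line with tet-controlled HBV genotype D. EC50 came from 4-parameter regression of percent inhibition versus vehicle, using supernatant HBV DNA copies/mL measured by QPCR.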

[2] = In vitro cytotoxicity assay (MTT cell viability) in HepG2 cells; format: cell-based, human; details: human
Outline: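 Parental HepG2 cells in EMEM + 10% FBS were exposed to compounds (8 half-log dilutions, 30 μM to 1.0 nM) for 7 days at 37 °C, 5% CO2. MTT was then added for 3-4 h, formazan dissolved in DMSO and absorbance read at 492 nm; CC50 came from 4-parameter fits against vehicle controls.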

SMILES | EC50 [1] [µM] | CC50 at 7 days [2] [µM]
Cc1cc(NC(=O)c2c(C)c(C(=O)C(=O)NC3CCN(C4CCOCC4)CC3)n(C)c2C)ccc1F [Example 653, N-(4-fluoro-3-methylphenyl)-1,2,4-trimethyl-5-(2-oxo-2-((1-(tetrahydro-2H-pyran-4-yl)piperidin-4-yl)mino)acetyl)-1H-pyrrole-3-carboxamide] | 0.05 to 0.499 | > 30
Cc1cc(NC(=O)c2c(C)c(C(=O)C(=O)NC3(CN4CCOCC4)CCCCC3)n(C)c2C)ccc1F [Example 596, N-(4-fluoro-3-methylphenyl)-1,2,4-trimethyl-5-(2-((1-(morpholinomethyl)cyclohexyl)amino)-2-oxoacetyl)-1H-pyrrole-3-carboxamide] | < 0.05 | > 30
Cc1cc(NC(=O)c2c(C)c(C(=O)C(=O)N[C@@H](C)C(C)(C)C)n(C)c2C)ccc1F [Example 88, (S)-5-(2-((3,3-dimethylbutan-2-yl)amino)-2-oxoacetyl)-N-(4-fluoro-3-methylphenyl)-1,2,4-trimethyl-1H-pyrrole-3-carboxamide] | < 0.05 | 5 to 30
Cc1cc(NC(=O)c2c(Cl)c(C(=O)C(=O)NCC(C)(C)CO)n3c2CCC3)ccc1F [Example 549, 6-chloro-N-(4-fluoro-3-methylphenyl)-5-(2-((3-hydroxy-2,2-dimethylpropyl)amino)-2-oxoacetyl)-2,3-dihydro-1H-pyrrolizine-7-carboxamide] | 0.5 to 1 | > 30
Cc1cc(NC(=O)c2c(C)c(C(=O)C(=O)NC(C)(C)C(F)(F)F)n(CCF)c2C)ccc1F [Example 227, N-(4-fluoro-3-methylphenyl)-1-(2-fluoroethyl)-2,4-dimethyl-5-(2-oxo-2-((1,1,1-trifluoro-2-methylpropan-2-yl)amino)acetyl)-1H-pyrrole-3-carboxamide] | < 0.05 | > 30
Cc1nc(C2(NC(=O)C(=O)c3c(C)c(C(=O)Nc4ccc(F)c(C)c4)c(C)n3C)CCCCC2)no1 [Example 632, N-(4-fluoro-3-methylphenyl)-1,2,4-trimethyl-5-(2-((1-(5-methyl-1,2,4-oxadiazol-3-yl)cyclohexyl)amino)-2-oxoacetyl)-1H-pyrrole-3-carboxamide] | < 0.05 | > 30
Cc1cc(NC(=O)c2c(C)c(C(=O)C(=O)NC3CCN(C)C(=O)C3)n(C)c2C)ccc1F (stereo not drawn) [Example 609, N-(4-fluoro-3-methylphenyl)-1,2,4-trimethyl-5-(2-((1-methyl-2-oxopiperidin-4-yl)amino)-2-oxoacetyl)-1H-pyrrole-3-carboxamide] | < 0.05 | > 30
Cc1cc(NC(=O)c2c(C)c(C(=O)C(=O)NC3CCc4nc(N)sc4C3)n(C)c2C)ccc1F (stereo not drawn) [Example 20, 5-(2-((2-amino-4,5,6,7-tetrahydrobenzo[d]thiazol-6-yl)amino)-2-oxoacetyl)-N-(4-fluoro-3-methylphenyl)-1,2,4-trimethyl-1H-pyrrole-3-carboxamide] | < 0.05 | 0.5 to 4.99
Cc1cc(NC(=O)c2c(Cl)c(C(=O)C(=O)NCC(C)(C)O)n3c2CCCC3)ccc1F [Example 497, 2-chloro-N-(4-fluoro-3-methylphenyl)-3-(2-((2-hydroxy-2-methylpropyl)amino)-2-oxoacetyl)-5,6,7,8-tetrahydroindoliine-1-carboxamide] | 0.05 to 0.499 | 0.5 to 4.99
Cc1cc(NC(=O)c2c(C)c(C(=O)C(=O)NCc3csc(N)n3)n(C)c2C)ccc1F [Example 111, 5-(2-(((2-aminothiazol-4-yl)methyl)amino)-2-oxoacetyl)-N-(4-fluoro-3-methylphenyl)-1,2,4-trimethyl-1H-pyrrole-3-carboxamide] | < 0.05 | > 30
Cc1cc(NC(=O)c2c(C)c(C(=O)C(=O)NC3CCN(c4ccccn4)CC3)n(C)c2C)ccc1F [Example 657, N-(44-fluoro-3-methylphenyl)-1,2,4-trimethyl-5-(2-oxo-2-((1-(pyridin-2-yl)piperidin-4-yl)amino)acetyl)-1H-pyrrole-3-carboxamide] | < 0.05 | 5 to 30
Cc1cc(NC(=O)c2c(C)c(C(=O)C(=O)N[C@@H](C)C(F)(F)F)n3c2CCCC3)cnc1F [Example 470, (S)-N-(6-fluoro-5-methylpyridin-3-yl)-2-methyl-3-(2-oxo-2-((1,1,1-trifluoropropan-2-yl)amino)acetyl)-5,6,7,8-tetrahydroindolizine--1 carboxamide] | 0.5 to 1 | 5 to 30
Cc1cc(NC(=O)c2c(C)c(C(=O)C(=O)NC3(CO)CC(F)(F)C3)n3c2CCCC3)cnc1F [Example 474, 3-(2-((3,3-difluoro-1-(hydroxymethyl)cyclobutyl)amino)-2-oxoacetyl)-N-(6-fluoro-5-methylpyridin-3-yl)-2-methyl-5,6,7,8-tetrahydroindolizine-1-ccarboxamide] | 0.5 to 1 | > 30
Cc1cc(NC(=O)c2c(Cl)c(C(=O)C(=O)NCc3cnc(N)s3)n3c2CCC3)ccc1F [Example 552, 5-(2-(((2-aminothiazol-5-yl)methyl)amino)-2-oxoacetyl)-6-chloro-N-(4-fluoro-3-methylphenyl)-2,3-dihydro-1H-pyrrolizine-7-carboxamide] | < 0.05 | 5 to 30
Cc1cc(NC(=O)c2c(C)c(C(=O)C(=O)NC3(c4noc(C(F)F)n4)CCC3)n(C)c2C)ccc1F [Example 153, 5-(2-((1-(5-(difluoromethyl)-1,2,4-oxadiazol-3-yl)cyclobutyl)amino)-2-oxoacetyl)-N-(4-fluoro-3-methylphenyl)-1,2,4-trimethyl-1H-pyrrole-3-carboxamide] | < 0.05 | 5 to 30
Cc1cc(NC(=O)c2c(Cl)c(C(=O)C(=O)NC(C)(C)C)n3c2CCC3)ccc1F [Example 539, 5-(2-(tert-butylamino)-2-oxoacetyl)-6-chloro-N-(4-fluoro-3-methylphenyl)-2,3-dihydro-1H-pyrrolizine-7-carboxamide] | < 0.05 | 5 to 30
Cc1cc(NC(=O)c2c(C)c(C(=O)C(=O)N[C@@H](CO)[C@H](C)O)n(C)c2C)ccc1F [Example 103, 5-(2-(((2S,3S)-1,3-dihydroxybutan-2-yl)amino)-2-oxoacetyl)-N-(4-fluoro-3-methylphenyl)-1,2,4-trimethyl-1H-pyrrole-3-carboxamide] | < 0.05 | > 30
O=C(NC1(CO)CC(F)(F)C1)C(=O)c1c(Cl)c(C(=O)Nc2ccc(F)c(Cl)c2)c2n1CCC2 [Example 580, 6-chloro-N-(3-chloro-4-fluorophenyl)-5-(2-((3,3-difluoro-1-(hydroxymethyl)cyclobutyl)amino)-2-oxoacetyl)-2,3-dihydro-1H-pyrrolizine-7-carboxamide] | < 0.05 | 5 to 30
Cc1c(C(=O)Nc2ccc(F)c(F)c2)c(Cl)c(C(=O)C(=O)NC2(C(F)(F)F)CC2)n1C [Example 376, 4-chloro-N-(3,4-difluorophenyl)-1,2-dimethyl-5-(2-oxo-2-((1-(trifluoromethyl)cyclopropyl)amino)acetyl)-1H-pyrrole-3-carboxamide] | < 0.05 | 5 to 30
Cc1cc(NC(=O)c2c(C)c(C(=O)C(=O)NC3CCN(c4ncccn4)CC3)n(C)c2C)ccc1F [Example 658] | < 0.05 | 5 to 30
Cc1c(C(=O)NC2CCC(F)(F)C2)c2n(c1C(=O)C(=O)NC(C)(C)CO)CCCC2 (stereo not drawn) [Example 752, N-(3,3-difluorocyclopentyl)-3-(2-((1-hydroxy-2-methylpropan-2-yl)amino)-2-oxoacetyl)-2-methyl-5,6,7,8-tetrahydroindolizine-1-carboxamide] | 0.05 to 0.499 | > 30
CO[C@H]1CC[C@@H](NC(=O)C(=O)c2c(C)c(C(=O)Nc3cnc(F)c(C)c3)c(C)n2C)CC1 [Example 344, N-(6-fluoro-5-methylpyridin-3-yl)-5-(2-(((1s,4s)-4-methoxycyclohexyl)amino)-2-oxoacetyl)-1,2,4-trimethyl-1H-pyrrole-3-carboxamide] | 0.05 to 0.499 | > 30
CC[C@H](C)NC(=O)C(=O)c1c(Cl)c(C(=O)Nc2cnc(F)c(C)c2)c2n1CCC2 [Example 733, (S)-5-(2-(sec-butylamino)-2-oxoacetyl)-6-chloro-N-(6-fluoro-5-methylpyridin-3-yl)-2,3-dihydro-1H-pyrrolizine-7-carboxamide] | < 0.05 | 5 to 30
COCC(C)(C)NC(=O)C(=O)c1c(C)c(C(=O)Nc2ccc(F)nc2)c(C)n1C [Example 168, N-(6-fluoropyridin-3-yl)-5-(2-((1-methoxy-2-methylpropan-2-yl)amino)-2-oxoacetyl)-1,2,4-trimethyl-1H-pyrrole-3-carboxamide] | 0.05 to 0.499 | > 30
Cc1cnc(NC(=O)c2c(C)c(C(=O)C(=O)NC(C)(C)CO)n3c2CCCC3)s1 [Example 758, 3-(2-((1-hydroxy-2-methylpropan-2-yl)amino)-2-oxoacetyl)-2-methyl-N-(5-methylthiazol-2-yl)-5,6,7,8-tetrahydroindazoline-1-carboxamide] | 0.05 to 0.499 | > 30
Cc1cc(NC(=O)c2c(C)c(C(=O)C(=O)N[C@@H](C(N)=O)C(C)(C)C)n(C)c2C)ccc1F [Example 40, (R)-5-(2-((1-amino-3,3-dimethyl-1-oxobutan-2-yl)amino)-2-oxoacetyl)-N-(4-fluoro-3-methylphenyl)-1,2,4-trimethyl-1H-pyrrole-3-carboxamide] | 0.5 to 1 | 0.5 to 4.99
Cc1c(C(=O)Nc2ccc(F)c(Cl)c2)c(Cl)c(C(=O)C(=O)NC(C)(C)C)n1C [Example 370, 5-(2-(tert-butylamino)-2-oxoacetyl)-4-chloro-N-(3-chloro-4-fluorophenyl)-1,2-dimethyl-1H-pyrrole-3-carboxamide] | < 0.05 | > 30
